Experimental data published in PubChem BioAssay AID1963871 (Molecular Pharmacology Branch, DTP, NCI, 2024).

Tested on: KRAS-mutant PDC multicell tumor spheroid viability
Test: Anticancer human tumor 521955-158-R2-J5-PDC patient-derived pancreatic carcinoma cell line growth inhibition [KRAS2]
Conditions: for IC50: curve of first compound; for viability, T/C: stronger effect = lower value
How it was run: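 Combination screen of spheroid viability in tumor-cell co-cultures with endothelial (HUVEC) and mesenchymal stem cell stroma. Each agent was tested in half-log dilutions, topping at clinical Cmax or at 10 microM without a known Cmax.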

[1] = second compound 0.1 µM, first compound 0.01 µM
[2] = second compound 0.1 µM, first compound 0.0316 µM
[3] = second compound 0.1 µM, first compound 0.1 µM
[4] = second compound 0.1 µM, first compound 0.316 µM
[5] = second compound 0.1 µM, first compound 1 µM
[6] = second compound 0.1 µM, first compound 3.16 µM
[7] = second compound 0.316 µM, first compound 0.01 µM
[8] = second compound 0.316 µM, first compound 0.0316 µM
[9] = second compound 0.316 µM, first compound 0.1 µM
[10] = second compound 0.316 µM, first compound 0.316 µM
[11] = second compound 0.316 µM, first compound 1 µM
[12] = second compound 0.316 µM, first compound 3.16 µM
[13] = second compound 1 µM, first compound 0.01 µM
[14] = second compound 1 µM, first compound 0.0316 µM
[15] = second compound 1 µM, first compound 0.1 µM
[16] = second compound 1 µM, first compound 0.316 µM
[17] = second compound 1 µM, first compound 1 µM
[18] = second compound 1 µM, first compound 3.16 µM
[19] = second compound 3.16 µM, first compound 0.01 µM
[20] = second compound 3.16 µM, first compound 0.0316 µM
[21] = second compound 3.16 µM, first compound 0.1 µM
[22] = second compound 3.16 µM, first compound 0.316 µM
[23] = second compound 3.16 µM, first compound 1 µM
[24] = second compound 3.16 µM, first compound 3.16 µM
[25] = second compound 10 µM, first compound 0.01 µM
[26] = second compound 10 µM, first compound 0.0316 µM
[27] = second compound 10 µM, first compound 0.1 µM
[28] = second compound 10 µM, first compound 0.316 µM
[29] = second compound 10 µM, first compound 1 µM
[30] = second compound 10 µM, first compound 3.16 µM
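Further: viability read after seven days of drug exposure.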

Row | SMILES | IC50 (second compound 0.1 µM) [nM] | IC50 (second compound 0.316 µM) [nM] | IC50 (second compound 1 µM) [nM] | IC50 (second compound 3.16 µM) [nM] | IC50 (second compound 10 µM) [nM] | viability, T/C [1] [%] | viability, T/C [2] [%] | viability, T/C [3] [%] | viability, T/C [4] [%] | viability, T/C [5] [%] | viability, T/C [6] [%] | viability, T/C [7] [%] | viability, T/C [8] [%] | viability, T/C [9] [%] | viability, T/C [14] [%] | viability, T/C [15] [%] | viability, T/C [20] [%] | viability, T/C [21] [%] | viability, T/C [26] [%] | viability, T/C [27] [%] | other results
1 | CC(=O)OC12COC1CC(O)C1(C)C(=O)C(O)C3=C(C)C(OC(=O)C(O)C(NC(=O)OC(C)(C)C)c4ccccc4)CC(O)(C(OC(=O)c4ccccc4)C21)C3(C)C (stereo not given) + CC1OCC2(CCN(c3cnc(Sc4ccnc(N)c4Cl)c(N)n3)CC2)C1N | < 10 | < 10 | < 10 | < 10 | < 10 | 26.4 | 15.3 | 11.9 | 14.5 | 16.1 | 19.7 | 25.1 | 15.3 | 14 | 13 | 11.2 | 15.9 | 14.5 | 15.9 | 15.2 | viability, T/C [10]: 11.1%; viability, T/C [11]: 17.7%; viability, T/C [12]: 18.2%; viability, T/C [13]: 19.7%; viability, T/C [16]: 13.1%; viability, T/C [17]: 15.6%; viability, T/C [18]: 20.7%; viability, T/C [19]: 21.2%; viability, T/C [22]: 12.7%; viability, T/C [23]: 19.5%; viability, T/C [24]: 23.2%; viability, T/C [25]: 22.1%; viability, T/C [28]: 17.3%; viability, T/C [29]: 14.6%; viability, T/C [30]: 22.3%
2 | CN(C)C/C=C/C(=O)Nc1cc2c(Nc3ccc(F)c(Cl)c3)ncnc2cc1O[C@H]1CCOC1 + CC1OCC2(CCN(c3cnc(Sc4ccnc(N)c4Cl)c(N)n3)CC2)C1N | > 100 | > 100 | > 100 | < 0.316 | > 100 | 73.4 | 81.9 | 59.3 |  |  |  | 57.6 | 63.5 | 58.2 | 78.6 | 73.1 | 65.2 | 64.5 | 80.8 | 80.3 | viability, T/C (second compound 0.1 µM, first compound 0.000316 µM): 71.7%; viability, T/C (second compound 0.1 µM, first compound 0.001 µM): 66.5%; viability, T/C (second compound 0.1 µM, first compound 0.00316 µM): 56.3%; viability, T/C (second compound 0.316 µM, first compound 0.000316 µM): 60.5%; viability, T/C (second compound 0.316 µM, first compound 0.001 µM): 70.3%; viability, T/C (second compound 0.316 µM, first compound 0.00316 µM): 57.3%; viability, T/C (second compound 1 µM, first compound 0.000316 µM): 112%; viability, T/C (second compound 1 µM, first compound 0.001 µM): 107%; viability, T/C (second compound 1 µM, first compound 0.00316 µM): 85.3%; viability, T/C [13]: 75.5%; viability, T/C (second compound 3.16 µM, first compound 0.000316 µM): 28%; viability, T/C (second compound 3.16 µM, first compound 0.001 µM): 37%; viability, T/C (second compound 3.16 µM, first compound 0.00316 µM): 37.2%; viability, T/C [19]: 49%; viability, T/C (second compound 10 µM, first compound 0.000316 µM): 105%; viability, T/C (second compound 10 µM, first compound 0.001 µM): 90%; viability, T/C (second compound 10 µM, first compound 0.00316 µM): 85.8%; viability, T/C [25]: 79.9%
3 | O=C(c1cc(Cc2n[nH]c(=O)c3ccccc23)ccc1F)N1CCN(C(=O)C2CC2)CC1 + CC1OCC2(CCN(c3cnc(Sc4ccnc(N)c4Cl)c(N)n3)CC2)C1N | > 10000 | < 31.6 | > 10000 | < 31.6 | 725 |  | 67.2 | 71.2 | 57.2 | 55 | 53.3 |  | 48.7 | 48.6 | 106 | 118 | 30.4 | 35.5 | 43.2 | 44.3 | viability, T/C (second compound 0.1 µM, first compound 10 µM): 58%; viability, T/C [10]: 46.8%; viability, T/C [11]: 49.1%; viability, T/C [12]: 49.8%; viability, T/C (second compound 0.316 µM, first compound 10 µM): 40.2%; viability, T/C [16]: 92.3%; viability, T/C [17]: 83.9%; viability, T/C [18]: 74.1%; viability, T/C (second compound 1 µM, first compound 10 µM): 56.8%; viability, T/C [22]: 37.9%; viability, T/C [23]: 35.9%; viability, T/C [24]: 38.6%; viability, T/C (second compound 3.16 µM, first compound 10 µM): 33.6%; viability, T/C [28]: 86.8%; viability, T/C [29]: 46.9%; viability, T/C [30]: 44%; viability, T/C (second compound 10 µM, first compound 10 µM): 39.3%
